Data as given in PubChem BioAssay (NCI).
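Five concentrations, 48 hours, 96-well plates. GI50 = concentration required for 50% inhibition of growth. TGI denotes the concentration required for complete inhibition of growth.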

Experiments:
Test in all cases: growth of human tumour cells (NCI), 48 h
[1] = test system: NCI-H522 lung
[2] = test system: SF-295 CNS
[3] = test system: M14 melanoma
[4] = test system: HS 578T breast
[5] = test system: SNB-75 CNS
[6] = test system: HCC-2998 colon
[7] = test system: LOX IMVI melanoma
[8] = test system: MALME-3M melanoma
[9] = test system: NCI-H460 lung
[10] = test system: A498 renal

Structure (SMILES)	TGI [1] [µM]	TGI [2] [µM]	TGI [3] [µM]	TGI [4] [µM]	TGI [5] [µM]	TGI [6] [µM]	TGI [7] [µM]	TGI [8] [µM]	TGI [9] [µM]	TGI [10] [µM]	GI50 [1] [µM]	GI50 [3] [µM]	GI50 [4] [µM]	GI50 [5] [µM]	GI50 [6] [µM]	GI50 [8] [µM]	GI50 [9] [µM]	GI50 [10] [µM]	GI50 [2] [µM]	GI50 [7] [µM]
COC(=O)C(=O)C(C(=O)C(=O)Nc1nc(=S)[nH][nH]1)c1nc2ccc([N+](=O)[O-])cc2[nH]c1=O (configuration not stated)	> 100	> 100	> 100	> 100	> 100	> 100	> 100	> 100	> 100	> 100										
COc1ccc2c(c1)O/C(=C\c1ccc([N+](=O)[O-])s1)C2=O	0.738	> 47.4	> 100	> 25.2	39.2	> 100		> 100	> 100	> 75.7	0.241	2.89	2.61	2.36	2.91	4.99	2.32	> 27.4		
COC(=O)C1=C(O)C(C(=O)OC)[C@@]2(O)[C@@H](C(=O)OC)C(c3ccccc3Cl)C[C@@H]1[C@@H]2C(=O)OC (some centres not stated)	12.8	23.8		43.7		28.6	17	29.9	> 100	32.4	3.16		10.1		14	10.6	10.7	14.2	7.05	4.43
O=S1(=O)C=C(c2ccccc2)C(c2ccccc2)=C1		6.3	3.01	3.5	2.6	3.16	3.05	4.72	4.23	3.25		1.58	1.18	1.33	1.71	1.93	1.88	1.47	2.06	1.69
O=C(Nc1ccc(N2CCNCC2)cn1)c1[nH]ncc1Nc1ncnc2sc3c(c12)CCC3	4.82	23.9	3.22	14.6	4.04	36.2			3.48	24.6	1.92	1.49	3.38	1.6	14.1		1.58	5.06	4.31	
NC(N)=N/N=C/c1ccc(Br)cc1	17.7	11.8	5.67	10.2	5.76	3.16	20.8	22.7	11.7	13.7	4.39	2.21	3.33	1.6	1.14	10.1	3.29	3.57	2.95	6.45
COC(=O)CCc1c(/C=C2\N=C(c3ccc[nH]3)C=C2OC)[nH]c(C)c1C(=O)OCc1ccccc1	2.88	1.73	0.784	3.78	1.8	6.04	0.418	2.12	> 61.9	3.37	0.653	0.256	0.491	0.315	0.404	0.638	0.958	0.289	0.384	0.169
